Reference: patent US20180147183A1, “USE OF R-OXIRACETAM IN PHARMACEUTICAL FIELD” (Chongqing Runze Pharmaceutical Co., Ltd., priority 2015, published 2018)
Marks after values point to notes of the source that are not given here.

System: lithium chloride-pilocarpine epilepsy model rat
Assay: Lithium chloride-pilocarpine rat epilepsy model, prophylactic administration
Type: in vivo, SD rats
Details: 120 mg/kg for 7 days before modeling, 10 rats
From the text: Stages: epileptic seizures evaluation are categorized by Racine Stages
Stage 0: no signs of any seizure;
Stage I: staring, head and face slightly trembling;
Stage II: head nodding or wet dog-like shaking;
Stage III: forelimb limit convulsions;
Stage IV: full-body ankylosing convulsions with a standing hind limb;
Stage V: full-body ankylosing clonic seizures with standing with fell;
Partial epilepsy seizure occurs when any one of Stage Ito Stage III appears;
Generalized epilepsy seizure occurs when Stage IV or Stage V appears;
Status epilepticus (SE) occurs when Stage IV or Stage V lasts 30 minutes.
The rat epilepsy models were treated with lithium chloride-pilocarpine and used levetiracetam as positive control. The duration of acute seizures of lithium chloride-pilocarpine epilepsy model rat was selected as the observation time, and prophylactic administration was used.
Animals were randomly divided into 4 groups, 10/group. Levetiracetam was selected as a positive control, 1.5 times of clinical dose were chosen, that is, 150 mg/kg. The clinical dose of an adult is 800 mg/times, twice daily, that is, 1600 mg/60 kg, 26.7 mg/kg. The dose of a rat is converted to 160 mg/kg according to body surface area. R-oxiracetam and levorotatory oxiracetam were selected half of the dose, that is, 80 mg/kg, and 1.5 times is 120 mg/kg. The dose was 1 ml/100 g, and the rats were treated with continuous administration for 7 days. As levetiracetam administration of 1.3 h (80 min), the plasma concentration peak, so we choose the last 80 minutes after the last administration of modeling. As administration of levetiracetam for 1.3 h (80 min), the plasma concentration peak was reached, so each group was selected after the last 80 minutes after the start of modeling.
Modeling method: After several previous test, the following modeling method was chosen: Animal ip. Lithium chloride 3 mmol/kg (1.5 ml/L) 127 mg/kg (12.7 mg/ml, 1 ml/100 g body weight), 24 h, 37.5 mg/kg pilocarpine three times ip. mg/kg (2.5 mg/ml, 0.5 ml/100 g body weight) at intervals of 10 minutes. […]

NC(=O)CN1C[C@H](O)CC1=O [R-oxiracetam, (R)-4-hydroxy-2-oxo-1-pyrrolidineacetamide]
Latency Stage I: 19.6 ± 4.4 min | Latency Stage II: 34.7 ± 15.2 min | Latency Stage III: 40.2 ± 12.1 min | Latency Stage IV: 35.0 ± 2.8 min | Latency Stage V: 38.0 ± 2.8 min | Number of Deaths: 1 | Number of SE Animals: 2 | Number of seizures Stage I: 2.3 ± 1.2 times | Number of seizures Stage II: 6.8 ± 3.7 times | Number of seizures Stage III: 6.4 ± 3.6 times | Occurrence rate Stage I: 10% | Occurrence rate Stage II: 10% | Occurrence rate Stage III: 5% | Occurrence rate Stage IV: 2* % | Occurrence rate Stage V: 2% | duration Stage IV: 10.0 ± 1.4 min | duration Stage V: 26.5 ± 0.7 min | number of animals having stage IV (P<0.05 vs model control): 20% | mortality rate (within 1 to 7 days after modeling): 10%
